{
  "source": "patent US7960130B2",
  "about": "“Method for activation of transient receptor potential cation channel, subfamily A, member 1 using acetaldehyde” (Korea University Industry and Academy Cooperation Foundation, priority 2008, dated 2011)",
  "key": {"[1]": {"biological_target": "T1, TRPV3 (Homo sapiens, UniProt Q8NET8)", "T1 construct": "expressed in transfected cells; host or cells: HEK293T (ATCC CRL-11268), pcDNA5/FRT", "T1 sequence (Q8NET8 1-790)": "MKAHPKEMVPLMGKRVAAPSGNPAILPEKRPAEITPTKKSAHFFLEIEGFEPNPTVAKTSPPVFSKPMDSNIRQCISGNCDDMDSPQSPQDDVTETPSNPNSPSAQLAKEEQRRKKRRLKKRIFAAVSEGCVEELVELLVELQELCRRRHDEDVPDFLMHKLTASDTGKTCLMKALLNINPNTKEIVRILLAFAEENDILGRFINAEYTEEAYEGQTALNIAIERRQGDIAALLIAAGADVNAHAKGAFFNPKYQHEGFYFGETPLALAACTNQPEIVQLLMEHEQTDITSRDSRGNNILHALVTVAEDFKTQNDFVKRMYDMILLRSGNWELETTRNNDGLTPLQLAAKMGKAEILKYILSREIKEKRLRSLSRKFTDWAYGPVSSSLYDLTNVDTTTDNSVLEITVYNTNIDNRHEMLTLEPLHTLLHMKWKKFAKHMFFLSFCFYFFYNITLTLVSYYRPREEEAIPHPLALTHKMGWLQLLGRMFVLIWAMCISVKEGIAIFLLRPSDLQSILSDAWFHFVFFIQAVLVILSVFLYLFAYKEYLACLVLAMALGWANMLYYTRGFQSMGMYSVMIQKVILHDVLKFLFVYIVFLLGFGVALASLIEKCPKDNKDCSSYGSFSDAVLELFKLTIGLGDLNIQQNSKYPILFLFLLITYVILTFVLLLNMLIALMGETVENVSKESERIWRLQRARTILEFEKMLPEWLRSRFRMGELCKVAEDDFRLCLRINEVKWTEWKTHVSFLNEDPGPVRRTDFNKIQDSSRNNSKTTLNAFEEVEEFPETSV", "assay": "Calcium imaging of TRP transfected cell lines treated with acetaldehyde (TRPV3)", "assay_type": "cell-based", "conditions": "1 mM acetaldehyde", "source_text": "(§1) HEK293T cell line (ATCC CRL-11268) was transiently transfected with plasmid DNA containing polynucleotide encoding hTRPA1 (SEQ. ID. NO: 1), rTRPV2 (SEQ. ID. NO: 2), rTRPV1 (SEQ. ID. NO: 3), mTRPV4 (SEQ. ID. NO: 4), mTRPA1 (SEQ. ID. NO: 5), hTRPV3 (SEQ. ID. NO: 6) or mTRPM8 (SEQ. ID. NO: 7).\n(§2) Particularly, the HEK293T cell line was transiently transfected with individual TRP channel plasmid (pcDNA3.1 containing polynucleotide encoding hTRPA1, rTRPV2, rTRPV1 or mTRPV4; pcDNA5/FRT containing polynucleotide encoding mTRPA1, hTRPV3 or mTRPM8) 3 μg per 35-mm dish and 600 ng/well of pcDNA3 (Invitrogen Corp., USA; containing green fluorescent protein (GFP) cDNA) using Fugene6 (Roche Diagnostics, USA) according to manufacturer's instruction. The transformed cells were cultured in DMEM/F12 containing 10% FBS and 1% penicillin/streptomycin in a CO2 incubator for 24 hours. The cells were replated onto poly-L-lysine-coated glass coverslips, followed by further culture for 10-24 hours.\n(§3) Particularly, the transfected cell line of Example <4-1> was loaded with Fluo-3AM (5 μM; Sigma Aldrich, USA) in the bath solution (140 mM NaCl, 5 mM KCl, 2 mM CaCl2, 1 mM MgCl2, 10 mM HEPES; adjusted to pH 7.4 with NaOH) containing 0.02% pluronic acid (Invitrogen, USA). […]"}, "[2]": {"biological_target": "T2, TRPM8 (Mus musculus, UniProt Q8R4D5)", "T2 construct": "expressed in transfected cells; host or cells: HEK293T (ATCC CRL-11268), pcDNA5/FRT", "T2 sequence (Q8R4D5 whole entry)": "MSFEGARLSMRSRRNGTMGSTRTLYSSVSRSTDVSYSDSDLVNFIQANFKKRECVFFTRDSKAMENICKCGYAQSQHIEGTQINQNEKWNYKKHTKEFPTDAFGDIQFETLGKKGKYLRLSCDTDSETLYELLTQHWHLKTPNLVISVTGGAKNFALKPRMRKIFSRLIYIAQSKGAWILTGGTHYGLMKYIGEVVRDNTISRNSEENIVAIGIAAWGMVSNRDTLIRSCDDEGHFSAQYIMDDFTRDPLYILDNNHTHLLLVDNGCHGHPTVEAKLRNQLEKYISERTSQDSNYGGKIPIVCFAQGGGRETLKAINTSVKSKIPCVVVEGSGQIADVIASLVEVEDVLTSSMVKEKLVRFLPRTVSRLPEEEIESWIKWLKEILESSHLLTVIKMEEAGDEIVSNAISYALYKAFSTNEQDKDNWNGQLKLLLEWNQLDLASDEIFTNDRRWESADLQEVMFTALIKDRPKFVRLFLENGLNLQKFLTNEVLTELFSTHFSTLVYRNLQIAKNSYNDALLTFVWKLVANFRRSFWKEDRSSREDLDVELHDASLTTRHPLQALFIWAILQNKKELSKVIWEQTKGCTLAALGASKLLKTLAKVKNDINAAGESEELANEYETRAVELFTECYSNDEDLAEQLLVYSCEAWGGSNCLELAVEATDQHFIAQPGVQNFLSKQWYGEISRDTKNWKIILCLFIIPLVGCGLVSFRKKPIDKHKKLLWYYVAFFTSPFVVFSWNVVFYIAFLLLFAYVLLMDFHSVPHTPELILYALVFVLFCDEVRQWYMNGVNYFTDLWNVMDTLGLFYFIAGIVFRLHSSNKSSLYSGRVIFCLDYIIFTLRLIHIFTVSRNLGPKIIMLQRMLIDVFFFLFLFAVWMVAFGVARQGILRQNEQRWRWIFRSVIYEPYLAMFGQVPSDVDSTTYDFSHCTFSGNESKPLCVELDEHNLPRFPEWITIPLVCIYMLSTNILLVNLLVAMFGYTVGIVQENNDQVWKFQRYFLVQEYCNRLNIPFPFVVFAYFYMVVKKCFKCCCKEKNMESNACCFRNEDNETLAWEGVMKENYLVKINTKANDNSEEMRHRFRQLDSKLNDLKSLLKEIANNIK", "assay": "Calcium imaging of TRP transfected cell lines treated with acetaldehyde (TRPM8)", "assay_type": "cell-based", "conditions": "1 mM acetaldehyde", "source_text": "as §1, §2, §3"}, "[3]": {"tested_on": "TRPA1", "assay": "Calcium imaging of TRP transfected cell lines treated with acetaldehyde (TRPA1)", "assay_type": "cell-based", "conditions": "1 mM acetaldehyde", "source_text": "as §1, §2, §3"}, "[4]": {"biological_target": "T3, hTRPA1 (Homo sapiens, UniProt O75762)", "T3 construct": "expressed in transfected cells; host or cells: HEK293T (ATCC CRL-11268), pcDNA3.1", "T3 sequence (O75762 whole entry)": "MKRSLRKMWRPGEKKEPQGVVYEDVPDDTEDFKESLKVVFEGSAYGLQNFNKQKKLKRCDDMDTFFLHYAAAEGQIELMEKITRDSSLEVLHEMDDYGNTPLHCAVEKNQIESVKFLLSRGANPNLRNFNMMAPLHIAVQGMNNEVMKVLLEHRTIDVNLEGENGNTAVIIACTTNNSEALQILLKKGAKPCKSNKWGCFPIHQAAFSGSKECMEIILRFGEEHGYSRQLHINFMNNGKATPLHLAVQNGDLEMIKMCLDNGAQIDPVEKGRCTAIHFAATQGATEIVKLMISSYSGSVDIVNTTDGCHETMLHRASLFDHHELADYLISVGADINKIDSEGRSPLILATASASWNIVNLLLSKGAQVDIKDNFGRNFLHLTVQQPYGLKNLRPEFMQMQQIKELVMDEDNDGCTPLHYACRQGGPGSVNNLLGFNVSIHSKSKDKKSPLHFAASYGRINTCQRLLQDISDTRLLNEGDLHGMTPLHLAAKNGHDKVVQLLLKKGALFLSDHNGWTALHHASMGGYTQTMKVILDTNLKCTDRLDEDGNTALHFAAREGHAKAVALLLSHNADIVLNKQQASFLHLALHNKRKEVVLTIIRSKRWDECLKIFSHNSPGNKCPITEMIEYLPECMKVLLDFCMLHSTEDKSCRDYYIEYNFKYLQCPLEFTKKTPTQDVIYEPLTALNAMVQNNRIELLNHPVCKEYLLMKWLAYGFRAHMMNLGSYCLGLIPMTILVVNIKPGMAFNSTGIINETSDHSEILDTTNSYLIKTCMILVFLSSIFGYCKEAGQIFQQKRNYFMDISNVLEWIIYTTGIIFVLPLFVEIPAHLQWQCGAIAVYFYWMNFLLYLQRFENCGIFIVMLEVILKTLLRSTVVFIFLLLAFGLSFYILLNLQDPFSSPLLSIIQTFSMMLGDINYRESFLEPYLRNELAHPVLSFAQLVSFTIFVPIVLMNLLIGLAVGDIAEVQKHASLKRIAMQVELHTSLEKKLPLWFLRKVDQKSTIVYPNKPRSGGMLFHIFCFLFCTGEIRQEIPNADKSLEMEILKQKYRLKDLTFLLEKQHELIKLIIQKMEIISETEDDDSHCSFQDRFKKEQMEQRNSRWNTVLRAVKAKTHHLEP", "assay": "Fluo-3 calcium imaging of hTRPA1-transfected HEK293T cells", "assay_type": "cell-based", "experimental": "as §2\n(§4) Stock solutions were made using water or ethanol, and were diluted with test solutions before use.\n(§5) Calcium imaging was performed with a confocal microscope (LSM5 Pascal, Carl Zeiss, Germany), and time-lapse images (488 nm excitation/514 nm emission) were collected every 3 seconds using Carl Zeiss ratio tool software (Carl Zeiss, Germany).\nas §4"}, "[5]": {"tested_on": "trigeminal neurons", "assay": "Whole-cell voltage-clamp recording of cultured trigeminal neurons", "assay_type": "cell-based, mouse", "conditions": "1 mM acetaldehyde, n=6", "experimental": "Trigeminal ganglia were dissected out of decapitated adult ICR mice in cold PBS and treated with 1.5 mg/Ml of collagenase/dispase (Roche Diagnostics, USA) at 37 °C for 45 min, and then treated with 0.25% trypsin (Invitrogen, USA) for 15 min. The trigeminal neurons prepared thereby were then plated onto poly-L-lysine-coated coverslips in DMEM/F12 containing 10% FBS, 1% penicillin/streptomycin and 5 ng/Ml of 2.5S NGF (Invitrogen, USA), nerve growth factor (Invitrogen), followed by culture in a CO2 incubator for 48-72 hours.\nParticularly, the extracellular solution (140 mM NaCl, 5 mM KCl, 2 mM CaCl2, 1 mM MgCl2, 10 mM HEPES; titrated to pH 7.4 with NaOH) and the pipette solution (140 mM CsCl, 5 mM EGTA, 10 mM HEPES, 2.0 mM MgATP, 0.2 mM NaGTP; titrated to pH 7.2 with CsOH) were used. The potential was holded at −60 mV for 250 ms, voltage-ramp pulsed from −80 mV to +80 mV for […] and returned to −60 mV for 250 ms, which was repeated without intersweep. This experiment was repeated 5 times.\nThe trigeminal neurons prepared by the same manner as described in Example 2 were delayed-treated with 1 mM acetaldehyde, followed by treatment of 20 μM GdCl3 (a TRPA1 blocker gadolinium; Sigma-Aldrich, USA) and 2 mM camphor. Then, whole-cell voltage-clamp recording was performed by the same manner as described in Example <5-2>."}, "[6]": {"biological_target": "T4, mTRPA1 (Mus musculus, UniProt Q8BLA8)", "T4 construct": "expressed in transfected cells; host or cells: HEK293T (ATCC CRL-11268), pcDNA5/FRT", "T4 sequence (Q8BLA8 whole entry)": "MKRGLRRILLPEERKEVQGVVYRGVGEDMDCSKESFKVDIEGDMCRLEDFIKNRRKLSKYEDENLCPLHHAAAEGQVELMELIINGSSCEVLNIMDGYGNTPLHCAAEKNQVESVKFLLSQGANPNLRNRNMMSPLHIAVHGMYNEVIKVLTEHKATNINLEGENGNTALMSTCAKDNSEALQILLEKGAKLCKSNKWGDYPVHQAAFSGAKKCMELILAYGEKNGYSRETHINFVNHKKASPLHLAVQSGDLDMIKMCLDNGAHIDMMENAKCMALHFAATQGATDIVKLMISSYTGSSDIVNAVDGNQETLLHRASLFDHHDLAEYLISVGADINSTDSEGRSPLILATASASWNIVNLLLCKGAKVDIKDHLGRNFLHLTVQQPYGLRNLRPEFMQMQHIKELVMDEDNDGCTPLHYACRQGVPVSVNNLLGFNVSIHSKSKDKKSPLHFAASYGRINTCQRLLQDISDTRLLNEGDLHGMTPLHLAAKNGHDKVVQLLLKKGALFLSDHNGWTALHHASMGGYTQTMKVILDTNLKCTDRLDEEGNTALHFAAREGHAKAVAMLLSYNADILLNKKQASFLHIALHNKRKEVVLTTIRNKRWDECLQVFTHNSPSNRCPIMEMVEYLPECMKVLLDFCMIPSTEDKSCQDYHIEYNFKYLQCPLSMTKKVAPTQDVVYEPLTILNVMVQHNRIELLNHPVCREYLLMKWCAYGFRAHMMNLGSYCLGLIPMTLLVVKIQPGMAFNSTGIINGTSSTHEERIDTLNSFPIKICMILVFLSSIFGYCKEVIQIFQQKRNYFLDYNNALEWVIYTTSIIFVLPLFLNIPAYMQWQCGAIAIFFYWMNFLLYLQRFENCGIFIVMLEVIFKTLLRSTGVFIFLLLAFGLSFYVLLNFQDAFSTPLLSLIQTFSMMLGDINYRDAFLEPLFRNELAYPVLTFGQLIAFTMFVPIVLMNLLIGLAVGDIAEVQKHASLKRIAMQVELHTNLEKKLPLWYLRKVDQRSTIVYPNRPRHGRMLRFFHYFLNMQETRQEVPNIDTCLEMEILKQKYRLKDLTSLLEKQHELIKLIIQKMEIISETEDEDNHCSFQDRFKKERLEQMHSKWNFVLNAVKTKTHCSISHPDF", "assay": "Fluo-3 calcium imaging of mTRPA1-transfected HEK293T cells", "assay_type": "cell-based", "experimental": "as §2, §5, §4"}, "[7]": {"biological_target": "T5, TRPV4 (Mus musculus, UniProt Q9EPK8)", "T5 construct": "expressed in transfected cells; host or cells: HEK293T (ATCC CRL-11268), pcDNA3.1", "T5 sequence (Q9EPK8 whole entry)": "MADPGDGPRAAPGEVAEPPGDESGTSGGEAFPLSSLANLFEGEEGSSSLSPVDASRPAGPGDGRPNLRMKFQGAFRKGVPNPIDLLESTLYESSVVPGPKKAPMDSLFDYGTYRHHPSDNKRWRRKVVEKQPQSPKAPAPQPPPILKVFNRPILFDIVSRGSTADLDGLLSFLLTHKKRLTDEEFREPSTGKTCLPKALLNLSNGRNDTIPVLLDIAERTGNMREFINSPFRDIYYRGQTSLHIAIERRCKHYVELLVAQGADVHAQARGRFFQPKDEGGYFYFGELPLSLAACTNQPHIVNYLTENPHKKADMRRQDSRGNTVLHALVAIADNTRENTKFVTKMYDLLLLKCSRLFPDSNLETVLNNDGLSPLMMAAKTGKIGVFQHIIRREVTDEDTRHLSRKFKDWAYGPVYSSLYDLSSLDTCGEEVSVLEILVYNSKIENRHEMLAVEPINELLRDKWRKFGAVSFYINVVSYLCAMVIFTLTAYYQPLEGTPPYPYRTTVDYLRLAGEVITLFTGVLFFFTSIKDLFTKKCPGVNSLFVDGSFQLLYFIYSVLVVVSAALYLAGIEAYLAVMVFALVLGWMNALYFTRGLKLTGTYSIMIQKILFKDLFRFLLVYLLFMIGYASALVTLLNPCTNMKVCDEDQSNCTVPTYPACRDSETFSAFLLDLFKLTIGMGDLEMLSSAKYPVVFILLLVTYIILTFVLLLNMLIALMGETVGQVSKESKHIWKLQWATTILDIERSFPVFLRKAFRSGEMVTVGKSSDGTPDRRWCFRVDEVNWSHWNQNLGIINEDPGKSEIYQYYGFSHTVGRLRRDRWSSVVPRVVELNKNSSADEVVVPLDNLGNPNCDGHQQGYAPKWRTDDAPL", "assay": "Calcium imaging of TRP transfected cell lines treated with acetaldehyde (TRPV4)", "assay_type": "cell-based", "conditions": "1 mM acetaldehyde", "source_text": "as §1, §2, §3"}, "[8]": {"conditions": "acetaldehyde 1 to 10^4 μM, Fluo-3 calcium imaging"}},
  "note": "Entries after “also recorded” stand apart in the source; their conditions may differ.",
  "data": [
    {"smiles": "CC=O", "note": "[acetaldehyde]", "values": [
      {"measurement": "activation of TRPV3 by acetaldehyde", "setting": "[1]", "value": "only TRPA1 was activated"},
      {"measurement": "activation of TRPM8 by acetaldehyde", "setting": "[2]", "value": "only TRPA1 was activated"},
      {"measurement": "activation of TRPA1 by acetaldehyde", "setting": "[3]", "value": "only TRPA1 was activated"},
      {"measurement": "EC50", "setting": "[4]", "value": 76.5, "unit": "µM"},
      {"measurement": "elevation of intracellular calcium levels in hTRPA1-expressing cells", "setting": "[4]; 1 mM acetaldehyde, 300 μM cinnamaldehyde, 10 mM acetic acid, 1% methanol, 1% ethanol", "value": "TRPA1-specific responses; also recorded: responded"},
      {"measurement": "n of dose-response curve (Hill plot) on hTRPA1", "setting": "[4]; [8]", "value": 2.4},
      {"measurement": "current increase in trigeminal neurons", "setting": "[5]", "value": "increased current"},
      {"measurement": "EC50", "setting": "[6]", "value": 1190, "unit": "µM"},
      {"measurement": "n of dose-response curve (Hill plot) on mTRPA1", "setting": "[6]; [8]", "value": 3.1},
      {"measurement": "maximum efficacy in mTRPA1 responses compared with hTRPA1", "setting": "[6]; dose-response, calcium imaging", "value": "greater maximum efficacy"},
      {"measurement": "activation of TRPV4 by acetaldehyde", "setting": "[7]", "value": "only TRPA1 was activated"}
    ]}
  ]
}
